Patent US11834451B2 (priority 2021, dated 2023)
Read-outs that look alike come from different tables or passages of the source.

How the values were obtained:
[1] = tested on: CVB3 Nancy virus; assay: microbe, parasite or virus in culture; format: cell-based, coxsackievirus B3 (CVB3); settings: Enterovirus B, CVB3, Vero, read-out: EC50, Anti-CVB3 in Vero cells
[2] = tested on: EV-D68; assay: microbe, parasite or virus in culture; format: cell-based, enterovirus D68 (EV-D68); settings: Enterovirus D, EVD68, RD
[3] = in vitro; settings: human
[4] = tested on: EV-A71; assay: microbe, parasite or virus in culture; format: cell-based, enterovirus A71 (EV-A71); settings: Enterovirus A, EVA71, RD
[5] = tested on: Vero cells; settings: African green monkey
[6] = tested on: EV-D68, EV-A71, and CVB3; assay: organism not typed; format: cell-based
[7] = read-out: EC50, Anti-EV-D68 US/KY/14-18953 in RD cells
[8] = CC50, in RD cells (Anti-EV-A71)
[9] = read-out: EC50, Anti-EV-A71 Tainan/4643/1998 in RD cells

Row | Structure (SMILES) | EC50 [1] [µM] | EC50 [2, 7] [µM] | CC50 [3, 8] [µM] | EC50 [4, 9] [µM] | EC50 values in words (summary across viruses) [6] | also measured
1 | CC(CN)NC(=O)c1cc(C(C)C)nc2c1cnn2C(C)C (centres unmarked) [Compound 10f, N-(1-aminopropan-2-yl)-1,6-bis(propan-2-yl)-1H-pyrazolo[3,4-b]pyridine-4-carboxamide] | 0.6 | 0.4 | 118 | 0.5 |  | 
2 | CC(C)n1ncc2c(C(=O)NCCN(C)C)cc(C(C)(C)C)nc21 [Compound 11a, 6-tert-butyl-N-[2-(dimethylamino)ethyl]-1-(propan-2-yl)-1H-pyrazolo[3,4-b]pyridine-4-carboxamide] | 0.1 | 0.1 | 31.4 | 0.04 |  | 
3 | CC(C)n1ncc2c(C(=O)NCCN)cc(C(C)(C)C)nc21 [Compound 11b, N-(2-aminoethyl)-6-tert-butyl-1-(propan-2-yl)-1H-pyrazolo[3,4-b]pyridine-4-carboxamide] | 0.1 | 0.1 | 24.6 | 0.2 |  | 
4 | Cc1cc(C(=O)NCCN(C)C)c2cnn(C(C)C)c2n1 [Compound 12a, N-[2-(dimethylamino)ethyl]-6-methyl-1-(propan-2-yl)-1H-pyrazolo[3,4-b]pyridine-4-carboxamide] | 0.2 | 0.4 |  | 0.1 |  | CC50 [5]: > 300 µM
5 | Cc1cc(C(=O)NCCN(C)C)c2cnn(C3CCCC3)c2n1 [Compound 13, 1-cyclopentyl-N-[2-(dimethylamino)ethyl]-6-methyl-1H-pyrazolo[3,4-b]pyridine-4-carboxamide] |  | 11.1 |  |  |  | 
6 | CCCn1ncc2c(C(=O)NCCN(C)C)cc(C)nc21 [Compound 14, N-[2-(dimethylamino)ethyl]-6-methyl-1-propyl-1H-pyrazolo[3,4-b]pyridine-4-carboxamide] |  | 48.4 |  |  |  | 
7 | CCn1ncc2c(C(=O)NCCN(C)C)cc(C3CC3)nc21 [Compound 16, 6-cyclopropyl-N-[2-(dimethylamino)ethyl]-1-ethyl-1H-pyrazolo[3,4-b]pyridine-4-carboxamide] | 1.8 | 1.7 |  | 1.2 | single-digit micromolar range | CC50 [5]: > 300 µM
8 | Cc1nn(C(C)(C)C)c2nc(C3CC3)cc(C(=O)NCCN(C)C)c12 [Compound 18a, 1-tert-butyl-6-cyclopropyl-N-[2-(dimethylamino)ethyl]-3-methyl-1H-pyrazolo[3,4-b]pyridine-4-carboxamide] | 1.8 | 0.8 | 45.2 | 3.5 |  | 
9 | CNCCNC(=O)c1cc(C2CC2)nc2c1c(C)nn2C(C)(C)C [Compound 18b, 1-tert-butyl-6-cyclopropyl-3-methyl-N-[2-(methylamino)ethyl]-1H-pyrazolo[3,4-b]pyridine-4-carboxamide] | 2.9 | 1.1 |  | 8.4 |  | 
10 | Cc1cc(C(=O)NCCN(C)C)c2c(C)nn(C(C)(C)C)c2n1 [Compound 19, 1-tert-butyl-N-[2-(dimethylamino)ethyl]-3,6-dimethyl-1H-pyrazolo[3,4-b]pyridine-4-carboxamide] | 2.1 | 1 |  | 7.4 |  | selectivity index across EV-D68 and EV-A71 strains tested [6]: > 100; EC50 ([6]; RD, read-out: EC50 values range against all EV-D68 and EV-A71 strains tested): 0.4 to 7.4 µM; EC50 ([2]; read-out: EC50, EV-D68 US/IL/14-18952 (Clade B2)): 0.7 µM; EC50 ([2]; read-out: EC50, EV-D68 US/IL/14-18956 (Clade B2)): 0.4 µM; EC50 ([2]; read-out: EC50, EV-D68 US/KY/14-18953 (Clade D)): 1 µM; EC50 ([2]; read-out: EC50, EV-D68 US/MO/14-18947 (Clade B1)): 0.4 µM; EC50 ([2]; read-out: EC50, EV-D68 US/MO/14-18949 (Clade B1)): 0.7 µM; CC50 ([3]; CC50 (EV-A71 A71 MP4 row group)): 236 µM; CC50 ([3]; CC50 (EV-A71 Tainan/4643/1998)): 236 µM; CC50 ([3]; CC50 (EV-A71 USA/CT/2016-19519)): 236 µM; EC50 ([4]; read-out: EC50, EV-A71 A71 MP4): 2 µM; EC50 ([4]; read-out: EC50, EV-A71 Tainan/4643/1998): 7.4 µM; EC50 ([4]; read-out: EC50, EV-A71 USA/CT/2016-19519): 1.3 µM
11 | CCCn1ncc2c(C(=O)NCCN(C)C)cc(C3CC3)nc21 [Compound 20, 6-cyclopropyl-N-[2-(dimethylamino)ethyl]-1-propyl-1H-pyrazolo[3,4-b]pyridine-4-carboxamide] | 2 | 1.2 | 57.7 | 2 | low single-digit or submicromolar | 
12 | CCC(C)n1ncc2c(C(=O)NCCN(C)C)cc(C3CC3)nc21 (centres unmarked) [Compound 21, 1-(butan-2-yl)-6-cyclopropyl-N-[2-(dimethylamino)ethyl]-1H-pyrazolo[3,4-b]pyridine-4-carboxamide] | 0.1 | 0.2 |  | 0.1 | low single-digit or submicromolar | 
13 | CC(C1CC1)n1ncc2c(C(=O)NCCN(C)C)cc(C3CC3)nc21 (centres unmarked) [Compound 22, 6-cyclopropyl-1-(1-cyclopropylethyl)-N-[2-(dimethylamino)ethyl]-1H-pyrazolo[3,4-b]pyridine-4-carboxamide] | 1.9 | 0.7 |  | 0.2 | low single-digit or submicromolar | 
